Experimental data published in patent publication US20080214537A1, “BRIDGED PHENANTHRIDINES” (CARA THERAPEUTICS, INC., priority 2007, published 2008).

Tests used:
[1] = biological target: human CB1 receptor (hCB1) (Homo sapiens, UniProt P21554); test: cAMP assay (LANCE TR-FRET) in CHO-K1 cells expressing hCB1; type: cell-based; conditions: activity on hCB1 represents inverse agonism; for EC50: CHO-K1 cells stably expressing hCB1, intracellular cAMP, NKH-477 prestimulated; for hCB1 % Max Range: percent of range defined by CP55,940 (1 μM = 100%); for Emax: CHO-K1, percent of range defined by CP55,940 (1 μM = 100%), read-out: hCB1 % Max Range
Method: (§1) The ability of compounds to act as agonists or inverse agonists at human CB2 and CB1 receptors (hCB2, hCB1, respectively) was determined by measuring changes in intracellular cAMP levels. Chinese Hamster Ovary (CHO-K1) cell lines stably expressing hCB2 (Genebank: X74328) or hCB1 (Genebank: X54937) were purchased from Euroscreen (Gosselies, Belgium).
(§2) Cell lines were grown in suspension in EX-CELL 302 CHO Serum-free medium (Sigma, catalog #14324C) supplemented with 1% Fetal Bovine Serum, glutamine and with or without non-essential amino-acids under 0.4 mg/mL G418 selection.
(§3) Receptor mediated responses were determined by measuring changes in intracellular cAMP using LANCE cAMP detection kit (catalog #AD0264, PerkinElmer, Wellesley, Mass.) based on time-resolved fluorescence resonance energy transfer (TR-FRET). Changes in cAMP were determined in cells pre-incubated with IBMX (isobutyl methylxanthine) and prestimulated with NKH-477 (a water soluble forskolin derivative, catalog #1603, Tocris, Ellisville, Mo.) to increase basal cAMP levels as detailed below.
(§4) On the day of the experiment, cells were spun at low speed for 5 min at room temperature. The supernatant was removed and cells were resuspended in stimulation buffer (Hanks Buffered Salt Solution/5 mM HEPES, containing 0.5 mM IBMX (catalog #17018, Sigma) and 0.02% BSA (PerkinElmer, catalog #CR84-100)). Cell clumps were removed by filtering through cell strainer 40 μm (BD Falcon, Discovery Labware, Bedford, Mass.) and diluted to 2×10^5 cells/mL. Antibody supplied with the LANCE cAMP immunoassay kit was then added according to the manufacturer's instructions. An aliquot of cells was taken for un-induced controls. To the remaining cells was added NKH-477 (a water soluble forskolin derivative, Tocris catalog #1603) to a final concentration of 2-8 μM. Cells were then incubated for either 25 or 30 min at room temperature prior to adding to Proxiplates containing test compounds (final DMSO concentration was less than 0.5%) with a Multidrop bulk dispenser, followed by a sixty minute incubation at room temperature. The response was stopped by addition of the detection mix supplied with the LANCE kit.
(§5) The reagents were allowed to equilibrate for three hours prior to reading on an Envision multi-mode detector (PerkinElmer). TR-FRET was measured using a 330-380 nm excitation filter, 615 and 665 nm emission filters, dichroic mirror 380 nm and Z=1 mm.
(§6) Cyclic AMP concentrations in each well were back-calculated from a cAMP standard curve run concurrently during each assay. Each plate contained 16 wells of forskolin stimulated cells and 16 wells of forskolin plus CP55,940-treated. CP55,940-treated cells were treated with CP55,940 (Tocris catalog #0949) at 1 μM and the maximal response was used as the full range (100%) standard. WIN55,212 (Tocris catalog #1038) was used as an internal standard. Concentrations of cAMP were expressed as a percent of the difference of these two groups of wells. Concentration-response data including EC50 (the concentration of compound producing 50% of the maximal response) and intrinsic activity (the percent maximal activation compared to full activation by CP55,940) were determined using a four-parameter non-linear regression algorithm (Xlfit equation 251, IDBS).

[2] = biological target: human CB2 receptor (hCB2) (Homo sapiens, UniProt P34972); test: cAMP assay (LANCE TR-FRET) in CHO-K1 cells expressing hCB2; type: cell-based; conditions: for Emax: CHO-K1, read-out: hCB2 % Max Range; for EC50: CHO-K1 cells stably expressing hCB2, intracellular cAMP, NKH-477 prestimulated, average of at least three replicates
Method: as §1, §2, §3, §4, §5
as §6, with “IDBS). Assays were performed with at least three replicates per compound and averaged results for the several compounds of the invention are shown in Table I.” for “IDBS).”

[3] = intrinsic activity: percent maximal activation compared to full activation by CP55,940 (1 μM = 100%)

Chain of human CB1 receptor (hCB1) (P21554 whole entry): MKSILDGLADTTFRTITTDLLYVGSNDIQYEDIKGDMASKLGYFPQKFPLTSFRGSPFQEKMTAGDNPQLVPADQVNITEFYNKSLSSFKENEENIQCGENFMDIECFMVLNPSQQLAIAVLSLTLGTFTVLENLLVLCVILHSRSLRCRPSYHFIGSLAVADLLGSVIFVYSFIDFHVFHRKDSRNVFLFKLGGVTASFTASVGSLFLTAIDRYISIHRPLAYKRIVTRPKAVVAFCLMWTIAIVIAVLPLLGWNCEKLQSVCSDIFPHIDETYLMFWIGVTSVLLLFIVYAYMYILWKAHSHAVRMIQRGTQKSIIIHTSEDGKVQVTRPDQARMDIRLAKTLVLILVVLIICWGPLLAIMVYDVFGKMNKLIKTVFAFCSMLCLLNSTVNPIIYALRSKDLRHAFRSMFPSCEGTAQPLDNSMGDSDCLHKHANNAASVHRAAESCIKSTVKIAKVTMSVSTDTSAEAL
Chain of human CB2 receptor (hCB2) (P34972 whole entry): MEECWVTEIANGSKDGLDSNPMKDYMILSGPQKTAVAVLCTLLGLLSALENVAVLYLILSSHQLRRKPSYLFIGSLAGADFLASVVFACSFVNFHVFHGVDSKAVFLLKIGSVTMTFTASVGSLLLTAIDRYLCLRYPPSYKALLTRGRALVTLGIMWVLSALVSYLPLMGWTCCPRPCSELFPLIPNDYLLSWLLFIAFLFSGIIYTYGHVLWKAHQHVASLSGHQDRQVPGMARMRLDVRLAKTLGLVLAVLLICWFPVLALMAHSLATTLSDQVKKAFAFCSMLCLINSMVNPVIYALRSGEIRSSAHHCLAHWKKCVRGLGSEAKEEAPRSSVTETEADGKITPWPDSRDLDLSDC

## CC(=O)Nc1ccc2c(c1)C1C3CCC(C3)C1C(c1ccc(C)cc1)N2 (single isomer, unassigned) [(25a), Bridged N-(6-p-tolyl-5,6,6a,7,8,9,10,10a-octahydrophenanthridin-2-yl)acetamide]
[1]
  EC50: 3.28 µM
  hCB1 % Max Range: 78%
[2]; [3]
  Emax: < 40%
[2]
  EC50: > 10000 nM

## CC(=O)Nc1ccc2c(c1)C1C3CCC(C3)C1C(c1ccc(C)cc1)N2 (single isomer, unassigned) [(25b), Bridged N-(6-p-tolyl-5,6,6a,7,8,9,10,10a-octahydrophenanthridin-2-yl)acetamide]
[1]
  EC50: 3.54 µM
  hCB1 % Max Range: 107%
[2]
  EC50: > 10000 nM
[2]; [3]
  hCB2 % Max Range: N/A (N/A: Response <40% assay range)

## CCCNC(=S)Nc1ccc2c(c1)C1C3CCC(C3)C1C(c1ccccc1)N2 (stereo not drawn) [(6), Bridged 1-propyl-3-(phenyl-5,6,6a,7,8,9,10,10a-octahydrophenanthridin-2-yl)thiourea]
[1]
  Emax: 53%
  EC50: 1.86 µM
[2]; [3]
  Emax: 76%
[2]
  EC50: 99.8 nM

## CCCNC(=O)Nc1ccc2c(c1)C1C3CCC(C3)C1C(c1ccc(C)cc1)N2 (stereo not drawn) [(7), Bridged 1-propyl-3-(6-p-tolyl-5,6,6a,7,8,9,10,10a-octahydrophenanthridin-2-yl)urea]
[1]
  Emax: < 40%
  EC50: > 10 µM
[2]; [3]
  Emax: < 40%
[2]
  EC50: > 10000 nM

## CCCNC(=S)Nc1ccc2c(c1)C1C3CCC(C3)C1C(c1ccc(C)cc1)N2 (stereo not drawn) [(8), Bridged 1-propyl-3-(6-p-tolyl-5,6,6a,7,8,9,10,10a-octahydrophenanthridin-2-yl)thiourea]
[1]
  Emax: 63%
  EC50: 2.04 µM
[2]; [3]
  Emax: < 40%
[2]
  EC50: > 10000 nM

## O=S(=O)(c1ccc2c(c1)C1C3CCC(C3)C1C(c1c(Cl)cccc1Cl)N2)N1CCCCC1 (stereo not drawn) [(9), Bridged 6-(2,6-dichlorophenyl)-2-(piperidin-1-ylsulfonyl)-5,6,6a,7,8,9,10,10a-octahydrophenanthridine]
[1]
  Emax: < 40%
  EC50: > 10 µM
[2]; [3]
  Emax: 75%
[2]
  EC50: 79.4 nM

## Cc1ccc(C2Nc3ccc(S(=O)(=O)N4CCCCC4)cc3C3C4CCC(C4)C23)cc1 (stereo not drawn) [(10), Bridged 2-(piperidin-1-ylsulfonyl)-6-p-tolyl-5,6,6a,7,8,9,10,10a-octahydrophenanthridine]
[1]
  Emax: < 40%
  EC50: > 10 µM
[2]; [3]
  Emax: 98%
[2]
  EC50: 21 nM

## CN(C)S(=O)(=O)c1ccc2c(c1)C1C3CCC(C3)C1C(c1ccccc1)N2 (stereo not drawn) [(11), Bridged N,N-dimethyl-6-phenyl-5,6,6a,7,8,9,10,10a-octahydrophenanthridine-2-sulfonamide]
[1]
  Emax: < 40%
  EC50: > 10 µM
[2]; [3]
  Emax: 99%
[2]
  EC50: 0.98 nM

## COCCC(=O)Nc1ccc2c(c1)C1C3CCC(C3)C1C(c1ccccc1)N2 (stereo not drawn) [(12), Bridged 3-methoxy-N-(6-phenyl-5,6,6a,7,8,9,10,10a-octahydrophenanthridin-2-yl)propanamide]
[1]
  Emax: < 40%
  EC50: > 10 µM
[2]; [3]
  Emax: 82%
[2]
  EC50: 12.4 nM

## O=C(Nc1ccc2c(c1)C1C3CCC(C3)C1C(c1ccccc1)N2)c1cocn1 (stereo not drawn) [(13), Bridged N-(6-phenyl-5,6,6a,7,8,9,10,10a-octahydrophenanthridin-2-yl)oxazole-4-carboxamide]
[1]
  Emax: < 40%
  EC50: > 10 µM
[2]; [3]
  Emax: 57%
[2]
  EC50: 680 nM

## O=C(CC1CCCO1)Nc1ccc2c(c1)C1C3CCC(C3)C1C(c1ccccc1)N2 (stereo not drawn) [(14), Bridged N-(6-phenyl-5,6,6a,7,8,9,10,10a-octahydrophenanthridin-2-yl)-2-(tetrahydrofuran-2-yl) acetamide]
[1]
  Emax: < 40%
  EC50: > 10 µM
[2]; [3]
  Emax: 92%
[2]
  EC50: 9.1 nM

## COCCC(=O)Nc1ccc2c(c1)C1C3CCC(C3)C1C(c1ccc(C)cc1)N2 (stereo not drawn) [(15), Bridged 3-methoxy-N-(6-p-tolyl-5,6,6a,7,8,9,10,10a-octahydrophenanthridin-2-yl)propanamide]
[1]
  Emax: 56%
  EC50: 2.36 µM
[2]; [3]
  Emax: < 40%
[2]
  EC50: > 10000 nM

## Cc1ccc(C2Nc3ccc(NC(=O)CC4CCCO4)cc3C3C4CCC(C4)C23)cc1 (stereo not drawn) [(16), Bridged 2-(tetrahydrofuran-2-yl)-N-(6-p-tolyl-5,6,6a,7,8,9,10,10a-octahydrophenanthridin-2-yl)acetamide]
[1]
  Emax: < 40%
  EC50: > 10 µM
[2]; [3]
  Emax: 52%
[2]
  EC50: 102 nM

## c1ccc(C2Nc3ccc(N4CCOCC4)cc3C3C4CCC(C4)C23)cc1 (stereo not drawn) [(17), Bridged 4-(6-phenyl-5,6,6a,7,8,9,10,10a-octahydrophenanthridin-2-yl)morpholine]
[1]
  Emax: < 40%
  EC50: > 10 µM
[2]; [3]
  Emax: 94%
[2]
  EC50: 140 nM

## Cc1ccc(C2Nc3ccc(N4CCOCC4)cc3C3C4CCC(C4)C23)cc1 (stereo not drawn) [(18), Bridged 4-(6-p-tolyl-5,6,6a,7,8,9,10,10a-octahydrophenanthridin-2-yl)morpholine]
[1]
  Emax: < 40%
  EC50: > 10 µM
[2]; [3]
  Emax: < 40%
[2]
  EC50: > 10000 nM

## O=C(Nc1ccc2c(c1)C1C3CCC(C3)C1C(c1ccccc1)N2)C1CC1 (stereo not drawn) [(19), Bridged N-(6-phenyl-5,6,6a,7,8,9,10,10a-octahydrophenanthridin-2-yl)cyclopropanecarboxamide]
[1]
  Emax: 53%
  EC50: 1.7 µM
[2]; [3]
  Emax: 49%
[2]
  EC50: 187 nM

## O=C(Nc1ccc2c(c1)C1C3CCC(C3)C1C(c1c(Cl)cccc1Cl)N2)C1CC1 (stereo not drawn) [(20), Bridged N-(6-(2,6-dichlorophenyl)-5,6,6a,7,8,9,10,10a-octahydrophenanthridin-2-yl)cyclopropanecarboxamide]
[1]
  Emax: < 40%
  EC50: > 10 µM
[2]; [3]
  Emax: < 40%
[2]
  EC50: > 10000 nM

## CCC1Nc2ccc(NC(=O)C3CC3)cc2C2C3CCC(C3)C12 (stereo not drawn) [(21), Bridged N-(6-ethyl-5,6,6a,7,8,9,10,10a-octahydrophenanthridin-2-yl)cyclopropanecarboxamide]
[1]
  Emax: < 40%
  EC50: > 10 µM
[2]; [3]
  Emax: 84%
[2]
  EC50: 1200 nM

## Cc1ccc(C2Nc3ccc(NC(=O)C4CC4)cc3C3C4CCC(C4)C23)cc1 (stereo not drawn) [(22), Bridged N-(6-p-tolyl-5,6,6a,7,8,9,10,10a-octahydrophenanthridin-2-yl)cyclopropanecarboxamide]
[1]
  Emax: 115%
  EC50: 1.81 µM
[2]; [3]
  Emax: 53%
[2]
  EC50: 14 nM

## CC(=O)Nc1ccc2c(c1)C1C3CCC(C3)C1C(c1ccccc1)N2 (stereo not drawn) [(23), Bridged N-(6-phenyl-5,6,6a,7,8,9,10,10a-octahydrophenanthridin-2-yl)acetamide]
[1]
  Emax: 88%
  EC50: 2.61 µM
[2]; [3]
  Emax: 82%
[2]
  EC50: 43 nM

## CC(=O)Nc1ccc2c(c1)C1C3CCC(C3)C1C(c1c(Cl)cccc1Cl)N2 (stereo not drawn) [(24), Bridged N-(6-(2,6-dichlorophenyl)-5,6,6a,7,8,9,10,10a-octahydrophenanthridin-2-yl)acetamide]
[1]
  Emax: < 40%
  EC50: > 10 µM
[2]; [3]
  Emax: < 40%
[2]
  EC50: > 10000 nM
